Data: ChEMBL document CHEMBL1201862, “PubChem BioAssay data set” (2004)
“And” between values parts separate entries of the source, which are not always exact repeats. Equal entries are not always repeated. The source made the active and inactive calls.

What was measured:
[1] = target: Cyclin-dependent kinase 5/CDK5 activator 1 (Homo sapiens, UniProt Q00535); assay: blockade of human CDK5 activity – biochemical, cherry-picked samples, set 2, dose response (AID 504545)
[2] = target: C-C chemokine receptor type 6 (Homo sapiens, UniProt P51684); assay: antagonism of CCR6 beta-arrestin recruitment – cell-based, luminescent beta-arrestin readout, dose response (AID 504728); assay type: functional
C-C chemokine receptor type 6, sequence (P51684 whole entry): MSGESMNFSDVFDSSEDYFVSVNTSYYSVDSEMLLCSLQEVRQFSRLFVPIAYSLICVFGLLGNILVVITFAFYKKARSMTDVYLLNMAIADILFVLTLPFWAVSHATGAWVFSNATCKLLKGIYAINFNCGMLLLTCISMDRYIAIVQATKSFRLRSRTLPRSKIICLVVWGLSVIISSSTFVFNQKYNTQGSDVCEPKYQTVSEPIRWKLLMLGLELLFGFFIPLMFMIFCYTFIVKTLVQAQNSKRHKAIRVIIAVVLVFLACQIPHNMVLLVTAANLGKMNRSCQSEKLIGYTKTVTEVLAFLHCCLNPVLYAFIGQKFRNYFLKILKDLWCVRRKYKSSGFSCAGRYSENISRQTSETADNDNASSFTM

SN12K1 = assay: cells; assay type: functional; conditions: Homo sapiens
Beta-galactosidase = Beta-galactosidase (Escherichia coli, UniProt Q8VNN2); assay: detection-enzyme interference by beta-gal modulators – biochemical, E. coli enzyme, set 3, artefact control for CCR6 antagonist project, dose response (AID 504712); assay type: functional
Beta-galactosidase, sequence (Q8VNN2 whole entry): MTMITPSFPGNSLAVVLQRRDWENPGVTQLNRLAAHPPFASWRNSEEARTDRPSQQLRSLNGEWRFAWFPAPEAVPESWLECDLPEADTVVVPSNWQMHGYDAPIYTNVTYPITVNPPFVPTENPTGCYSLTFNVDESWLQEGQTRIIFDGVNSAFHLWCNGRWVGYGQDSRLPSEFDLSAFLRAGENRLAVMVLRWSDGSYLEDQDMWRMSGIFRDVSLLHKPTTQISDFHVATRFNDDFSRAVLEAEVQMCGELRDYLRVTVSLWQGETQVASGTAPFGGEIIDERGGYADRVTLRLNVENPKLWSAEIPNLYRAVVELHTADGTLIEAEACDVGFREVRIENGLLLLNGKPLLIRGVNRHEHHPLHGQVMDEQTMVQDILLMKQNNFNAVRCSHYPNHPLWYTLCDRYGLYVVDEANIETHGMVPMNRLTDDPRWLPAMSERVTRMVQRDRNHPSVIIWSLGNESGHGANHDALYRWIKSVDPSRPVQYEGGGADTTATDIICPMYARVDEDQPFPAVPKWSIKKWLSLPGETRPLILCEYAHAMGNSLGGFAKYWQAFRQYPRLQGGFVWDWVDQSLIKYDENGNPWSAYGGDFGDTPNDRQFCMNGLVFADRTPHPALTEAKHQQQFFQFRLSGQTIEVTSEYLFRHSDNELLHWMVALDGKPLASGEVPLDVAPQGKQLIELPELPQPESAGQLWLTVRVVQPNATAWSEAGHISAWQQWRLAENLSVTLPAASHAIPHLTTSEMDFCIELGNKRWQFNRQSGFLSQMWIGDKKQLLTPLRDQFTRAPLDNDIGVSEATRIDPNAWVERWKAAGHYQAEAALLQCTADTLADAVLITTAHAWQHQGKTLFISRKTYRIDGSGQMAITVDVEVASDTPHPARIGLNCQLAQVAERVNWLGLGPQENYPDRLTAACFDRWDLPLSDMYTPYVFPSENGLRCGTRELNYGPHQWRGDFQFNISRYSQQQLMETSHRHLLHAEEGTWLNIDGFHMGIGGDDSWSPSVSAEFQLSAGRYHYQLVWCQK

P388 = assay: cells; assay type: functional; conditions: Mus musculus
Vero [3] = assay: cells; assay type: functional; conditions: Chlorocebus sabaeus
P388/ADR = assay: cells; assay type: functional; conditions: Mus musculus
Vero [4] = assay: cells; assay type: functional, cell-based; conditions: Chlorocebus sabaeus
[5] = target: T1, Zinc finger protein mex-5 (Caenorhabditis elegans, UniProt Q9XUB2); assay: potency of MEX-5 RNA-binding blockers – biochemical, C. elegans, fluorescence polarization, dose response (AID 1960)
T1 sequence (Q9XUB2 whole entry): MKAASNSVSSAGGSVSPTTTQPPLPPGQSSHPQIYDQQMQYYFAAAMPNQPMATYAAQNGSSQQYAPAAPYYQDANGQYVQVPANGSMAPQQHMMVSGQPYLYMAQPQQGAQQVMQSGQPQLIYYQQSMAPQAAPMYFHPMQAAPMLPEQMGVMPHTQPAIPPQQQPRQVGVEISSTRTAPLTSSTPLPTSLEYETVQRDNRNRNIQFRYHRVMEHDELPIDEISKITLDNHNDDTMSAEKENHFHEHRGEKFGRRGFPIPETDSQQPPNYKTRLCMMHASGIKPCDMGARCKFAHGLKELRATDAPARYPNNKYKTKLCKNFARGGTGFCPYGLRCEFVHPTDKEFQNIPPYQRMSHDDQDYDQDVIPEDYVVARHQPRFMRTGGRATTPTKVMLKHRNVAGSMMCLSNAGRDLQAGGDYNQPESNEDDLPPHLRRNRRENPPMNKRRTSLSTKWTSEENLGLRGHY

Aminopeptidase N = target: T2, Aminopeptidase N (Plasmodium falciparum FcB1/Columbia, UniProt O96935); assay: malaria alanyl aminopeptidase activity blockers – biochemical, fluorogenic H-Leu-NHMec substrate, 1536-well (AID 1445); parameters: species or system Plasmodium falciparum 3D7, 3D7
T2 sequence (O96935 whole entry): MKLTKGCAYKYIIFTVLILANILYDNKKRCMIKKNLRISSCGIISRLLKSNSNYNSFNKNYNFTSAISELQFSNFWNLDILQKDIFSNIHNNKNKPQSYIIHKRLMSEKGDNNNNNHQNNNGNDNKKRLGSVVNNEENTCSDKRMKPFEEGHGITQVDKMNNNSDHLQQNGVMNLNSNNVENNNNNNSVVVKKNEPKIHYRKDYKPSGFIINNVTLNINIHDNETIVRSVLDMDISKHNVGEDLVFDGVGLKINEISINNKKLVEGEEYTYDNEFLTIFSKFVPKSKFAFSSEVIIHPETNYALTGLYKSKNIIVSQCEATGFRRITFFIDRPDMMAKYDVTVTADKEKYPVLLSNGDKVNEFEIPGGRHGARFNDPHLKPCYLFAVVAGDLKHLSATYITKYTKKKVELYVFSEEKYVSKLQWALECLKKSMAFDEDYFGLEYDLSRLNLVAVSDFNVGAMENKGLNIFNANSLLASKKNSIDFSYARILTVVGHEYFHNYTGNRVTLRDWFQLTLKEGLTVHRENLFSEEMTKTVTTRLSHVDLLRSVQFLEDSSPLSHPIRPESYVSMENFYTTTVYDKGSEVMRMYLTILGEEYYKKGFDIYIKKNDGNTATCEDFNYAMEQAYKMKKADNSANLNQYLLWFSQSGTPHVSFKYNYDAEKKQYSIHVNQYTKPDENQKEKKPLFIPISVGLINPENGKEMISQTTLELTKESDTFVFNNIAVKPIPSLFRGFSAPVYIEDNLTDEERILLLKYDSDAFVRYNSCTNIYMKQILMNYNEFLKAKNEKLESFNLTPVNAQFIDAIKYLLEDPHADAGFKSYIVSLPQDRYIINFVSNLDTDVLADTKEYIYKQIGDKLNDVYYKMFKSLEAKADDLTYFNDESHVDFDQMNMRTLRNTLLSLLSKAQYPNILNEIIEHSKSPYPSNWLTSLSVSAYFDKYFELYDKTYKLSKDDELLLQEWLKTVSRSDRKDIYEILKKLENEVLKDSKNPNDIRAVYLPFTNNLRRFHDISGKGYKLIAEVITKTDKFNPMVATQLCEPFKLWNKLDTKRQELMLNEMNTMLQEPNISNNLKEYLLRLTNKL

[6] = target: T3, RNA-binding protein pos-1 (Caenorhabditis elegans, UniProt G5EF15); assay: disruptors of C. elegans POS-1 RNA interaction – biochemical, fluorescence polarization, dose response (AID 1964);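 further: purified POS-1 fused to maltose binding protein made in E. coli; potency of compounds blocking POS-1 binding to fluorescent RNA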
T3 sequence (G5EF15 whole entry): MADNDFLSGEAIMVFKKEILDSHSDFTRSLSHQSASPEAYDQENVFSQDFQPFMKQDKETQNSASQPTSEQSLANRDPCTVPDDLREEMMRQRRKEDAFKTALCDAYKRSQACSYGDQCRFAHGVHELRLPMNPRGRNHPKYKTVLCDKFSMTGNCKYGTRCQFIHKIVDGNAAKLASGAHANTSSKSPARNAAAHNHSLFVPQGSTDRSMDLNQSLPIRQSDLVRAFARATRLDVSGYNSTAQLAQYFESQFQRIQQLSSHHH

ORF 73 = ORF 73 (Human herpesvirus 8, UniProt O40947); assay: KSHV LANA DNA-binding disruption – biochemical, fluorescence polarization, cherry-picked samples, dose response (AID 504725); parameters: species or system Human gammaherpesvirus 8;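 further: fluorescence polarization of a labeled DNA duplex reporting LANA DNA binding; potency is for inhibitors that block LANA binding to the DNA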
[7] = protection from phage-mediated lysis, alamar blue read-out – E. coli UTI89, K1F phage, bacterial capsule biogenesis inhibitors (AID 488966); assay type: functional
Salmon testes DNA = assay: acridine orange-DNA binding displacement – biochemical, fluorescence polarization, cherry-picked samples, set 2, artefact control for KSHV LANA DNA-binding inhibitor project, dose response (AID 504727); parameters: species or system Salmonidae
cells = assay type: functional
Cytochrome P450 2C9 = Cytochrome P450 2C9 (Homo sapiens, UniProt P11712); conditions: Potency
Cytochrome P450 2C9, sequence (P11712 whole entry): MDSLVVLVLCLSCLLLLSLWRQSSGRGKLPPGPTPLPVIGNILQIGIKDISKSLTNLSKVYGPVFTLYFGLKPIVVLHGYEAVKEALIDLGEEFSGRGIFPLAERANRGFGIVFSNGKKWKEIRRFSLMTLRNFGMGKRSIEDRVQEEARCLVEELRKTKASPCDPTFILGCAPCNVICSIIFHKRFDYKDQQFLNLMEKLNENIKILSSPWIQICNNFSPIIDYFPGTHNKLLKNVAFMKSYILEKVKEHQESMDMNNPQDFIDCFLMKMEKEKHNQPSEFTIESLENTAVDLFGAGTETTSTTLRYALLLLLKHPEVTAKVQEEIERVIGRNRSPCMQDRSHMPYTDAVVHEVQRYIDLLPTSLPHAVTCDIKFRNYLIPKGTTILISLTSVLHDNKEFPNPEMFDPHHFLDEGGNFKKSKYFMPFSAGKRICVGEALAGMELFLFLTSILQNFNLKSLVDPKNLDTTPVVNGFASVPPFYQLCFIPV

[8] = fluconazole-exposed Candida albicans growth modulators – fluorescence, retest, confirmation (AID 2467); assay type: functional, cell-based
[9] = loss of viability in HepG2 cells – cell-based, CellTiter-Glo, cherry-picked, cytotoxicity control for Shn3 inhibitor project, dose response (AID 624134); assay type: functional
[10] = non-specific 3'UTR reporter inhibition in Clone20-Shn3RL – cell-based, Renilla luciferase, cherry-picked, counter-screen for Shn3 inhibitor project, dose response (AID 624133); assay type: functional
X-box-binding protein 1 = X-box-binding protein 1 (Homo sapiens, UniProt P17861); assay type: functional, Cricetulus griseus;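 further: confirmatory dose-response counter-screen serving a CHOP assay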
HeLa = assay: Cytotoxicity counterscreen assay for transcriptional activators of heat shock protein 70 (Hsp70). [Related pubchem assays: 1203, 1252 ]; assay type: functional; conditions: Homo sapiens;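 further: cells exposed to compound for 16 hours before readout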
BJ = assay: growth inhibition of engineered Ras-driven BJ cells – cell-based, alamar blue fluorescence, cherrypicked samples, dose response (AID 2631); assay type: functional; conditions: Homo sapiens;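 further: confirmatory dose-response assay in RAS-dependent BJ fibroblasts engineered with TERT, LT and ST, with cytotoxicity read by fluorescence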
[11] = reduction of Shn3 3'UTR-driven luciferase in osteoblasts – cell-based, Clone20 osteoblasts, firefly luciferase, cherry-picked, dose response (AID 624132); assay type: functional;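 further: firefly luciferase luminescence from reporter carrying the Shn3 3'UTR in osteoblasts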
[12] = NIH-3T3 fibroblast cytotoxicity, dose response, cytotoxicity control, cell-based, fluorescence, Alamar Blue, secondary assay (AID 2327); assay type: functional;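 further: NIH-3T3 mouse fibroblasts cultured with fluconazole at 8 µg/mL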
[13] = target: T4, Voltage-gated N-type calcium channel alpha-1B subunit/Amyloid beta A4 precursor protein-binding family A member 1 (Homo sapiens, UniProt Q00975+Q02410); assay: disruptors of Mint-PDZ/N-type channel peptide interaction – biochemical, HTRF, set 2, SAR follow-up (AID 434980); assay type: functional
T4 sequence (Q00975 whole entry): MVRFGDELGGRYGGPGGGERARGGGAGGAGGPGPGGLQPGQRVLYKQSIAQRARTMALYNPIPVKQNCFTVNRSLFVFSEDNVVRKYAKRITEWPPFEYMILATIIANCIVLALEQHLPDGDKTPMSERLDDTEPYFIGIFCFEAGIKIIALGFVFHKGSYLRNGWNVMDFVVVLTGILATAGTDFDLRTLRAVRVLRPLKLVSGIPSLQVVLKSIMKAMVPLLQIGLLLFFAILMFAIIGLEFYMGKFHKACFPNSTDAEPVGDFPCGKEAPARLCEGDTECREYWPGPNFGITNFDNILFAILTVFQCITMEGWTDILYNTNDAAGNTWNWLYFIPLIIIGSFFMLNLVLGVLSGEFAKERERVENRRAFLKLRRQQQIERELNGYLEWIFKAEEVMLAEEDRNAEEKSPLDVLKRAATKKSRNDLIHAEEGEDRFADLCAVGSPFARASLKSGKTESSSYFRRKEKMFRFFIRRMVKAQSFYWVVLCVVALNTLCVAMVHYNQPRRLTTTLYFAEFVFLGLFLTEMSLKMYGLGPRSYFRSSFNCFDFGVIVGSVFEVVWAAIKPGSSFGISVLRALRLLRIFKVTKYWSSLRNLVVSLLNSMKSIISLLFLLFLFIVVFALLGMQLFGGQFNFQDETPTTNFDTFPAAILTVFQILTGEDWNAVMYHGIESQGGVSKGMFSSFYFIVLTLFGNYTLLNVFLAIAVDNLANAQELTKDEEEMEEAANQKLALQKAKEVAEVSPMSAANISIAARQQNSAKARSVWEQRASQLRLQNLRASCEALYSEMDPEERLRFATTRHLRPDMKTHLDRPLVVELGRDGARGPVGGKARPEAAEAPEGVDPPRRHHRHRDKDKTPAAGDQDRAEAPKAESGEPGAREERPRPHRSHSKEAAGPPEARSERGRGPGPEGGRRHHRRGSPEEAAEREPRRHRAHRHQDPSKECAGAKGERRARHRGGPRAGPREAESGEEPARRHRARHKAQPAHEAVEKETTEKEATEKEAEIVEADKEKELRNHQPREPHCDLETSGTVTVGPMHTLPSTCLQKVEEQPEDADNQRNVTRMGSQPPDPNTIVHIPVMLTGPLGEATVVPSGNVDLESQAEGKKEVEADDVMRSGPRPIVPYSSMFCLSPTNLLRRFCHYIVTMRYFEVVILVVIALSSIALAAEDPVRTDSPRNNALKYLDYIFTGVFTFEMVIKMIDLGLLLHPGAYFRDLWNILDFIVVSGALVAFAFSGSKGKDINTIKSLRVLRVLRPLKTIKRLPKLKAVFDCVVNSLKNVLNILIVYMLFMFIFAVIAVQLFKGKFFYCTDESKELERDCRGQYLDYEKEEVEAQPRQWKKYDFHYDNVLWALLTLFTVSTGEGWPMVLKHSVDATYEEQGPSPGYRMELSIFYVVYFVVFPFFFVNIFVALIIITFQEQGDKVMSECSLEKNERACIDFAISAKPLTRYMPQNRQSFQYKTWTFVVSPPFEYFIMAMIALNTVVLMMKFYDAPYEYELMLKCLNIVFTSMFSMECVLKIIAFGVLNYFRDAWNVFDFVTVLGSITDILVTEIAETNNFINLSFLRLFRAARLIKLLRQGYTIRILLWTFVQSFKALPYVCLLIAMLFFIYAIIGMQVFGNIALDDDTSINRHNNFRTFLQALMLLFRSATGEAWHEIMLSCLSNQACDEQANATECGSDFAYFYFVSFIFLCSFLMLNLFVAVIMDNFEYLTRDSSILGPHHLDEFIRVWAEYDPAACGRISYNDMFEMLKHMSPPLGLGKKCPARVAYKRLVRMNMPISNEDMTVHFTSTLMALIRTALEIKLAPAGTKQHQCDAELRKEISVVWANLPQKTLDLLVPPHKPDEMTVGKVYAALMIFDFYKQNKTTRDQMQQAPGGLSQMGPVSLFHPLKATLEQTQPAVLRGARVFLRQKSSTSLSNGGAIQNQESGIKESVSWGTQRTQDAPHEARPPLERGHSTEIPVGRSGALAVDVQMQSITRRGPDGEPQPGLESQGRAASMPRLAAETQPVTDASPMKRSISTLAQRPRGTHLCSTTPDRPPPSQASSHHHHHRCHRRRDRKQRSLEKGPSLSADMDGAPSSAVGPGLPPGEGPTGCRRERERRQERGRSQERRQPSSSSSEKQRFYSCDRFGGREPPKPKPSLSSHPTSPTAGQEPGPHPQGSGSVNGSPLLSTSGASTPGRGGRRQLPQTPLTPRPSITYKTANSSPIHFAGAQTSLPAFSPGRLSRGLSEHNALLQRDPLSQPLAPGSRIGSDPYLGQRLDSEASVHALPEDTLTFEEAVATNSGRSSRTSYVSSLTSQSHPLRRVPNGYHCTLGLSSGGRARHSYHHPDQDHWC
T4 sequence (Q02410 whole entry): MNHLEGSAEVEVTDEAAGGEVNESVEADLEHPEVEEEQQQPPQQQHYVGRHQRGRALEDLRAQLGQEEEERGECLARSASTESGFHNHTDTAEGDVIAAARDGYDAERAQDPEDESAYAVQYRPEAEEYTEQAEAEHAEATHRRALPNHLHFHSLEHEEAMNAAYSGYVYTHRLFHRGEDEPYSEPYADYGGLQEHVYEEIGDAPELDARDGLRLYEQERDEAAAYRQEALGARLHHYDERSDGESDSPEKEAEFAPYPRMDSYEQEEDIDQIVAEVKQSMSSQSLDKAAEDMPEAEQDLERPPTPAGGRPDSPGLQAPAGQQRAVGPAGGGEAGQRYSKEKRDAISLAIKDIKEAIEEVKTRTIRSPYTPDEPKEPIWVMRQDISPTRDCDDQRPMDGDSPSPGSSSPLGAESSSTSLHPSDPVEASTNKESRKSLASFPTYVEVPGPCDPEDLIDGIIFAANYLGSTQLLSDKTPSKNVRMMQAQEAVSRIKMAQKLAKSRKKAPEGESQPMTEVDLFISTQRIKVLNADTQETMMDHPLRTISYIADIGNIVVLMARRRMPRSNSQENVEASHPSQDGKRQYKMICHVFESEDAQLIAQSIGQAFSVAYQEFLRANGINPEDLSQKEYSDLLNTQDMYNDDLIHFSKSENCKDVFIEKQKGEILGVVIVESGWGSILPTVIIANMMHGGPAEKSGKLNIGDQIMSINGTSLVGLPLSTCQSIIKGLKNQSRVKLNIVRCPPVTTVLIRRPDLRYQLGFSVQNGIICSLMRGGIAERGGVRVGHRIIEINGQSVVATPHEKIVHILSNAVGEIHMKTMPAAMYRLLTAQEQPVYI

[14] = target: T4, Voltage-gated N-type calcium channel alpha-1B subunit/Amyloid beta A4 precursor protein-binding family A member 1; assay: disruptors of Mint-PDZ/N-type channel peptide interaction – biochemical, HTRF, SAR follow-up (AID 2489); assay type: functional

Fc1ccccc1/C=N/Nc1[nH]cnc2ncnc1-2
AC50 [1]: 17.4 µM (active)

CCCC/C=C1/CCC(CN(C)C)C1=O (stereo unspecified)
IC50 [2]: 27.1 µM (inactive) | GI50 (SN12K1): 0.776 µM (active) | IC50 (Beta-galactosidase): > 66.6 µM (inactive) | GI50 (P388): 0.164 µM (active) | CC50 (Vero [3]): > 25 µM (active) | GI50 (P388/ADR): 0.155 µM (active) | IC50 (Vero [4]): 21.8 µM (active)

CS(=O)(=O)Nc1nc2n(n1)C(c1ccccc1)C=C(c1ccc(Br)cc1)N2 (stereo unspecified)
EC50 [5]: 6.39 µM (active) | IC50 (Aminopeptidase N): 45.3 µM (active) | EC50 [6]: > 300 µM (not active) | AC50 (ORF 73): 8.07 µM (active)

Cc1nc(SCc2ccccc2)c([N+](=O)[O-])[nH]1
IC50 [7]: > 150 µM (active)

O=c1oc2ccccc2nc1/C=C(\O)c1ccc(Br)cc1
AC50 (Salmon testes DNA): 56.9 µM (active) | IC50 (cells): 5 µM (active)

COCC#Cc1ccc(C2C(C)CCC3C(=O)N4C(CCC(C)C4c4ccc(C#CCOC)cc4)C(=O)N32)cc1 (stereo unspecified)
AC50 (Cytochrome P450 2C9): 7.94 µM (inconclusive)

Cc1cc(Cl)n2c(nc3ccccc32)c1C#N
EC50 [8]: 0.54 µM (active) | AC50 [9]: > 70 µM (inactive) | AC50 [10]: 5.72 µM (active) | Absolute IC50 (XBP1) (X-box-binding protein 1): 10 µM | CC50 (HeLa): > 11 µM (not active) | EC50 (BJ): 0.343 µM (inconclusive) | AC50 [11]: 1.85 µM (active) | EC50 [12]: 6.06 µM (inconclusive)

CC(=O)Oc1cccc(N2C(=O)C3C(C2=O)C2(C)C=CC3(C)O2)c1 (stereo unspecified)
IC50 [13]: 9.86 µM (active) and 9.63 µM (active) | IC50 [14]: 12 µM (active) and 18.3 µM (active)
